# Earlier results in patent US11773445B1, “Diagnostic methods” (GRIFFITH UNIVERSITY, priority 2015, dated 2023).
# Conditions: CFS patients; multiple Rituximab infusions
substance,measurement,value
Rituximab: drug given as multiple infusions to CFS patients in a cited study; anti-CD20 intervention,patients responded,15 of 25
